From patent US12611431B2, “Approach to sustained production and delivery of nitric oxide and S-nitrosothiols” (Albert Einstein College of Medicine, priority 2020, dated 2026)

How the values were obtained:
[1] = test system: Pseudomonas aeruginosa biofilm, ATCC 15692 strain; assay: Biofilm viability and volume by live/dead staining and CLSM, ATCC 15692 strain; conditions: ATCC 15692 biofilm, 6 hours; MH 14% w/v, nitrite 10 mM, SNO-MP/B-MP 10 mg/mL
Method: (§1) A culture of PA, grown overnight in TSB, was diluted to 10^8 cells/mL. The bacterial suspension was then adjusted to 10^5 cells/mL in TSB and inoculated into an 8 well LabTek II Chambered #15 Coverglass System (Thermo Fisher Scientific). The chamber system was incubated at 37° C. for 48 hours. The media was replenished after 24 hours to maintain bacterial viability.
(§2) Established biofilms were divided into four treatment groups: 1) negative control with untreated bacterial suspension, 2) MH, 3) nitrite (10 mM), and 4) MH administered with nitrite (10 mM). Bacteria were treated with the appropriate treatment solution, as above, for 6 hours under complete darkness at 37° C. followed by washing with PBS. Staining was performed using the BacLight LIVE/DEAD Bacterial Viability kit (Invitrogen, Carlsbad, CA). The LIVE/DEAD kit solution constituting Syto9 and propidium iodide was then applied to each well of the chamber slide system for 1 hour at room temperature in darkness. After incubation, each sample was rinsed with PBS and incubated in 10% buffered formalin for 20 minutes at room temperature in darkness. […]
(§3) Images of biofilms were taken using a TCS SP5 CLSM (Leica Microsystems, Wetzlar, Germany) configured to a 488-nm argon laser with a 63× objective. […] Volocity software (PerkinElmer, Waltham, MA) was used to quantify biofilm viability and biomass in each Z-stack.

[2] = test system: Pseudomonas aeruginosa planktonic isolates (PA1 strain); assay: Colony forming unit (CFU) assay, titration of nitrite dose with MH; format: cell-based; conditions: PA1, 6 hours at 37° C.; MH or nitrite (10 mM) alone
Method: An overnight-grown culture of the PA1 strain in TSB was diluted to 10^8 cells/mL based on McFarland equivalence turbidity standard No. 0.5 (Thermo Fisher Scientific) and then adjusted to 10^5 cells/mL in TSB. Suspensions were treated with MH, nitrite, and serial dilutions of nitrite from 10 mM to 1 μM combined with MH. Untreated bacteria were used as negative controls. Bacterial suspensions were mixed using a tube rotator to ensure uniform distribution of bacteria and then incubated at 37° C. for 6 hours. Suspensions were then diluted in PBS and plated on TSA. Bacterial viability was determined by counting the number of colonies established on an agar plate after overnight incubation at 37° C.

[3] = test system: Pseudomonas aeruginosa biofilm, PA1 strain; assay: Biofilm viability and volume by live/dead staining and CLSM, PA1 strain; format: cell-based; conditions: 6 hours, MH 14% w/v, nitrite 10 mM
Method: as §1, §2, §3

[4] = NO release rate measured with a Sievers 280i nitric oxide analyzer; format: physicochemical
Method: NO release rates were measured using a Sievers 280i nitric oxide analyzer (GE Instruments, Boulder, CO). Samples were dispersed in 5 mL tryptic soy broth (TSB) or MH 14% w/v in TSB at room temperature. Release kinetics were analyzed using Sievers NOAnalysis software (GE Instruments) with 12 measurements per minute recorded for 280 total minutes.

[5] = over 280 minutes, nitrite 5 mM, MH 14% w/v, SNO-MP and blank-MP 5 mg/mL, TSB, room temperature

O=NO [nitrite, sodium nitrite]
reduction in live cells (cell viability) relative to control [1]: did not significantly reduce | reduction in CFU versus controls [2]: did not have a significant effect | reduction in biofilm volume relative to control ([3]; SNO-MP 10 mg/mL): 43.9% | reduction in live cells (cell viability) relative to control ([3]; SNO-MP/B-MP 10 mg/mL): did not significantly reduce | NO release curve, key points in words (FIG. 1) ([4]; 280 minutes, neutral pH, nitrite 5 mM, MH 14% w/v, SNO-MP 5 mg/mL): no NO production | NO detected ([4]; nitrite 5 mM in tryptic soy broth, room temperature): less than 0.1 ppm | NO release, mean [4, 5]: 0.004±0.001 ppm | NO release, range [4, 5]: 0.003-0.009 ppm
